In US8389500B2, “Fused heterocyclic compounds as ion channel modulators” (Gilead Sciences, Inc., priority 2008, dated 2013):

The molecules below were run against T1, wild-type human cardiac sodium channel, hNav1.5 (late sodium current) (Homo sapiens, UniProt Q14524) (assay: Late INa screening assay (PatchXpress whole cell patch clamp)). Conditions: 1 μM test compound; HEK293 hNav1.5; late INa generated with 10 μM Tefluthrin (some experiments 50 nM ATX II); read-out: Late INa % blk (1 μM test cmpd).
T1 construct: host or cells: HEK293
Assay type: cell-based
Protocol: The late sodium current (Late INa) and peak sodium current (Peak INa) assays are performed on an automated electrophysiology platform, PatchXpress 7000A (MDS Analytical Technologies, Sunnyvale, Calif.), which uses the whole cell patch clamp technique to measure currents through the cell membrane of up to 16 cells at a time. The assay uses an HEK293 (human embryonic kidney) cell line heterologously expressing the wild-type human cardiac sodium channel, hNav1.5, purchased from Millipore (Billerica, Mass.). No beta subunits were coexpressed with the Na channel alpha subunit. Cells are maintained with standard tissue culture procedures and stable channel expression is maintained with 400 μg/ml Geneticin in the culture medium. […] Experiments are carried out at 24-27° C.
For both the Late INa and Peak INa assays, series resistance compensation is set to 50% and whole-cell compensation is performed automatically. […] Currents through open sodium channels are automatically recorded and stored in the DataXpress2 database (MDS Analytical Technologies, Sunnyvale, Calif.). Analysis is performed using DataXpress2 analysis software and data are compiled in Excel.
Compound stocks are routinely made in glass vials to 10 mM in dimethyl sulfoxide (DMSO). In some cases, when compounds are not soluble in DMSO, they are made in 100% ethanol. Stocks are sonicated as necessary. The extracellular solution for screening Late INa is composed of: 140 mM NaCl, 4 mM KCl, 1.8 mM CaCl2, 0.75 mM MgCl2, and 5 mM HEPES with pH adjusted to 7.4 using NaOH. The extracellular solution for screening Peak INa is composed of: 20 mM NaCl, 120 mM N-methyl-D glucamine, 4 mM KCl, 1.8 mM CaCl2, 0.75 mM MgCl2, and 5 mM HEPES with pH adjusted to 7.4 using HCl. The intracellular solution used to perfuse the inside of the cells for both the Late INa and Peak INa assays contains: 120 mM CsF, 20 mM CsCl, 5 mM EGTA, 5 mM HEPES and pH adjusted to 7.4 with CsOH. […] The 0Na extracellular solution used at the end of each experiment for the Late INa and Peak INa assays to measure baseline current contains: 140 mM N-methyl-D-glucamine; 4 mM KCl; 1.8 mM CaCl2; 0.75 mM MgCl2; 5 mM HEPES and pH was adjusted to 7.4 with HCl.
For the Late INa assay, sodium channels are activated every 10 seconds (0.1 Hz) by depolarizing the cell membrane to −20 mV for 250 milliseconds (ms) from a holding potential of −120 mV. In response to a −20 mV voltage step, typical Nav1.5 sodium currents activate rapidly to a peak negative current and then inactivate nearly completely within […].
All compounds are tested to determine their activity in blocking the late sodium current. Late INa current is generated by adding 10 μM Tefluthrin (pyrethroid) to the extracellular solution while recording Na currents For some experiments, 50 nM ATX II (sea anemone toxin), another late Na activator, was used to generate the late component. […] After establishing the whole cell recording configuration, late INa activators are added to each well 4 times over a 16-17 minute period so that the late component of the Na current reaches a stable value. […] Measurements are made at the end of exposure to the third compound addition and values are normalized to the current level when all Na^+ is removed from the extracellular solution after two additions of ONa-ECF. Results are reported as percent block of late INa

T1 sequence (Q14524 whole entry): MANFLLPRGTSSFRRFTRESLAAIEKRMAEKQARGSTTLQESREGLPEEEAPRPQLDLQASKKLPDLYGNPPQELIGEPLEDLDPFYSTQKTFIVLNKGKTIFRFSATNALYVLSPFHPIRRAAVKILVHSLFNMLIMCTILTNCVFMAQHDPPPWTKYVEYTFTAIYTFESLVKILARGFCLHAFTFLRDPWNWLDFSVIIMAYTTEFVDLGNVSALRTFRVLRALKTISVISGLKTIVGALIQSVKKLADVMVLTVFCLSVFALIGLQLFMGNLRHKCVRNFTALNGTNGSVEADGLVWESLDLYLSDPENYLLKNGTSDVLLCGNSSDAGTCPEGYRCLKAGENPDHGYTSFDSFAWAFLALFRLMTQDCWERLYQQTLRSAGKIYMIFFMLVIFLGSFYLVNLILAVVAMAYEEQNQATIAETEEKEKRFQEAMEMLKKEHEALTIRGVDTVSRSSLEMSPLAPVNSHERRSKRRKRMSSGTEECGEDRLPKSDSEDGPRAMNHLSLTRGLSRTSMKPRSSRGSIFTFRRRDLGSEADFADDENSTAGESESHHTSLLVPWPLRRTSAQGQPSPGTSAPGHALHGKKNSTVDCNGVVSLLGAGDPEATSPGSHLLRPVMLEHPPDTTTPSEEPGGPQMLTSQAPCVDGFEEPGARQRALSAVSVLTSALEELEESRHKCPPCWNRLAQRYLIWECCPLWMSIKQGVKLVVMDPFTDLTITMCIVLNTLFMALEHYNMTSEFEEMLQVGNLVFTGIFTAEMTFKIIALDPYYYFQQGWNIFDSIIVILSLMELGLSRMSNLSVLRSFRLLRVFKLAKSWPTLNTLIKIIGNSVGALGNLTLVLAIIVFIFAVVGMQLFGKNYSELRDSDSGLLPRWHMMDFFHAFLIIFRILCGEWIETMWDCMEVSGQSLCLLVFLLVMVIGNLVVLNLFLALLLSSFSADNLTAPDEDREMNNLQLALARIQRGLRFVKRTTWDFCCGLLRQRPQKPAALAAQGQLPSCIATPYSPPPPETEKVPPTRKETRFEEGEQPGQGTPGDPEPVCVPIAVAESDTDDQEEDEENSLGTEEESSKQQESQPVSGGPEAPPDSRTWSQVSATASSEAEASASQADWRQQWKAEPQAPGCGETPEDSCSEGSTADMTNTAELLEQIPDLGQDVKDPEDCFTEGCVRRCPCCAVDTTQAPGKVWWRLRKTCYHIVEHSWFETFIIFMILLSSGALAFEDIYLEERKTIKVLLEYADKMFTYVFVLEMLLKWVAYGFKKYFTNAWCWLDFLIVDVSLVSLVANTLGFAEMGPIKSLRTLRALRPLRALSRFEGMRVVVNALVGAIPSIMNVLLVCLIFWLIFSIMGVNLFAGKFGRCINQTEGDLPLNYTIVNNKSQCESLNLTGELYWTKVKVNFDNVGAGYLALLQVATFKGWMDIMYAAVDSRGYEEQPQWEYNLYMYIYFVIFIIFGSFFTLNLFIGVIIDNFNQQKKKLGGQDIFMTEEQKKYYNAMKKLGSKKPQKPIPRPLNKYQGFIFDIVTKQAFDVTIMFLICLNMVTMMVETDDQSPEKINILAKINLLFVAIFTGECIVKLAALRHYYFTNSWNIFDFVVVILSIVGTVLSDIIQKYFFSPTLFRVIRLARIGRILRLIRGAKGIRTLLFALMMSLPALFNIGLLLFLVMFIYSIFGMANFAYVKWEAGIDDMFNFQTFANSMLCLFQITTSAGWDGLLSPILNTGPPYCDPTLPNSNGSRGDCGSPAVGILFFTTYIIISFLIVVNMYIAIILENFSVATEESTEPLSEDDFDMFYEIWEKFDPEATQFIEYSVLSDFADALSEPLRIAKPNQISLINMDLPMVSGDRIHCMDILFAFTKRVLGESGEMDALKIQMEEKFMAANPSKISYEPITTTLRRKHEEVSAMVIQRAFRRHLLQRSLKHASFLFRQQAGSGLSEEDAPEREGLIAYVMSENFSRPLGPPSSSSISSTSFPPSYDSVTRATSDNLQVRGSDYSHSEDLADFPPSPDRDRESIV

Row | SMILES | inhibition at 1 µM
1 | CS(=O)(=O)Nc1ccc(-c2cccc(OC(F)(F)F)c2)c(Cl)c1 [PT-021, N-[2-chloro-3′-(trifluoromethoxy)biphenyl-4-yl]methanesulfonamide] | 34%
2 | CS(=O)(=O)Nc1ccc(-c2ccc(F)c(Cl)c2)c(Cl)c1 [PT-038, N-(2,3′-dichloro-4′-fluorobiphenyl-4-yl)methanesulfonamide] | 28.8%
3 | Cc1cc(-c2ccc(Oc3ccccc3)cc2)c(Cl)cc1NS(C)(=O)=O [PT-041, N-(2-chloro-5-methyl-4′-phenoxybiphenyl-4-yl)methanesulfonamide] | 45%
4 | CS(=O)(=O)Nc1ccc(-c2ccc(Cl)cc2)c(Cl)c1 [PT-043, N-(2,4′-dichlorobiphenyl-4-yl)methanesulfonamide] | 17.4%

Same assay, conditions: 10 μM test compound; HEK293 hNav1.5; late INa generated with 10 μM Tefluthrin (some experiments 50 nM ATX II); read-out: Late INa % blk (10 μM test cmpd)

Row | SMILES | inhibition at 10 µM
5 | CS(=O)(=O)Nc1ccc(-c2ccc(F)c(F)c2)cc1 [PT-002, N-(3′,4′-difluorobiphenyl-4-yl)methanesulfonamide] | 21.8%
6 | COc1cc(NS(C)(=O)=O)ccc1-c1ccc(C(F)(F)F)cc1 [PT-004, N-[2-methoxy-4′-(trifluoromethyl)biphenyl-4-yl]methanesulfonamide] | 42.8%
7 | CS(=O)(=O)Nc1ccc(-c2ccc(Cl)c(F)c2)cc1 [PT-005, N-(4′-chloro-3′-fluorobiphenyl-4-yl)methanesulfonamide] | 20.5%
8 | CS(=O)(=O)Nc1ccc(-c2ccc(C(F)(F)F)cc2)cc1 [PT-006, N-[4′-(trifluoromethyl)biphenyl-4-yl]methanesulfonamide] | 22.7%
9 | CS(=O)(=O)Nc1ccc(-c2ccc(F)c(Cl)c2)cc1 [PT-007, N-(3′-chloro-4′-fluorobiphenyl-4-yl)methanesulfonamide] | 34.9%
10 | CS(=O)(=O)Nc1ccc(-c2cccc(OC(F)(F)F)c2)cc1 [PT-008, N-[3′-(trifluoromethoxy)biphenyl-4-yl]methanesulfonamide] | 39.4%
11 | COc1cc(NS(C)(=O)=O)ccc1-c1ccc(OC(F)(F)F)cc1 [PT-009, N-[2-methoxy-4′-(trifluoromethoxy)biphenyl-4-yl]methanesulfonamide] | 20.9%
12 | COc1cc(NS(C)(=O)=O)ccc1-c1cccc(OC(F)(F)F)c1 [PT-010, N-[2-methoxy-3′-(trifluoromethoxy)biphenyl-4-yl]methanesulfonamide] | 48.2%
13 | COc1cc(NS(C)(=O)=O)ccc1-c1ccccc1OC(F)(F)F [PT-011, N-[2-methoxy-2′-(trifluoromethoxy)biphenyl-4-yl]methanesulfonamide] | 47.6%
14 | CS(=O)(=O)Nc1ccc(-c2ccc(Cl)c(F)c2)c(C(F)(F)F)c1 [PT-012, N-[4′-chloro-3′-fluoro-2-(trifluoromethyl)biphenyl-4-yl]methanesulfonamide] | 52%
15 | CS(=O)(=O)Nc1ccc(-c2ccc(OC(F)(F)F)cc2)c(C(F)(F)F)c1 [PT-014, N-[4′-(trifluoromethoxy)-2-(trifluoromethyl)biphenyl-4-yl]methanesulfonamide] | 50.5%
16 | CS(=O)(=O)Nc1ccc(-c2cccc(OC(F)(F)F)c2)c(C(F)(F)F)c1 [PT-015, N-[3′-(trifluoromethoxy)-2-(trifluoromethyl)biphenyl-4-yl]methanesulfonamide] | 60.8%
17 | CS(=O)(=O)Nc1ccc(-c2ccccc2OC(F)(F)F)c(C(F)(F)F)c1 [PT-016, N-[2′-(trifluoromethoxy)-2-(trifluoromethyl)biphenyl-4-yl]methanesulfonamide] | 45.8%
18 | CCOC(=O)CN(c1ccc(-c2ccc(Cl)c(F)c2)c(OC)c1)S(C)(=O)=O [PT-019, ethyl N-(4′-chloro-3′-fluoro-2-methoxybiphenyl-4-yl)-N-(methylsulfonyl)glycinate] | 55%
19 | CCOC(=O)CN(c1ccc(-c2cccc(OC(F)(F)F)c2)c(OC)c1)S(C)(=O)=O [PT-020, ethyl N-[2-methoxy-3′-(trifluoromethoxy)biphenyl-4-yl]-N-(methylsulfonyl)glycinate] | 52.9%
20 | CS(=O)(=O)Nc1ccc(-c2cccc(OC(F)(F)F)c2)c(Cl)c1 [PT-021, N-[2-chloro-3′-(trifluoromethoxy)biphenyl-4-yl]methanesulfonamide] | 77.5%
21 | CS(=O)(=O)Nc1ccc(-c2ccc(F)c(F)c2)c(Cl)c1 [PT-023, N-(2-chloro-3′,4′-difluorobiphenyl-4-yl)methanesulfonamide] | 48.2%
22 | CS(=O)(=O)Nc1ccc(-c2ccc(F)cc2F)c(Cl)c1 [PT-024, N-(2-chloro-2′,4′-difluorobiphenyl-4-yl)methanesulfonamide] | 43.5%

Row | SMILES | inhibition at 10 µM
23 | CCOC(=O)CN(c1ccc(-c2ccc(Cl)c(F)c2)c(Cl)c1)S(C)(=O)=O [PT-025, ethyl N-(2,4′-dichloro-3′-fluorobiphenyl-4-yl)-N-(methylsulfonyl)glycinate] | 60%
24 | CCCS(=O)(=O)Nc1ccc(-c2ccc(Cl)c(F)c2)c(Cl)c1 [PT-027, N-(2,4′-dichloro-3′-fluorobiphenyl-4-yl)propane-1-sulfonamide] | 55.5%
25 | CCOC(=O)CN(c1ccc(-c2cccc(OC(F)(F)F)c2)c(Cl)c1)S(C)(=O)=O [PT-028, ethyl N-[2-chloro-3′-(trifluoromethoxy)biphenyl-4-yl]-N-(methylsulfonyl)glycinate] | 62.1%
26 | CS(=O)(=O)N(CC(=O)O)c1ccc(-c2cccc(OC(F)(F)F)c2)c(Cl)c1 [PT-029, N-[2-chloro-3′-(trifluoromethoxy)biphenyl-4-yl]-N-(methylsulfonyl)glycine] | 28.4%
27 | CS(=O)(=O)Nc1ccc(-c2ccc(F)c(Cl)c2)cc1Cl [PT-030, N-(3,3′-dichloro-4′-fluorobiphenyl-4-yl)methanesulfonamide] | 41.4%
28 | COc1cc(NS(C)(=O)=O)ccc1-c1ccc(F)cc1 [PT-031, N-(4′-fluoro-2-methoxybiphenyl-4-yl)methanesulfonamide] | 17.1%
29 | COc1cc(NS(C)(=O)=O)ccc1-c1ccc(Cl)cc1 [PT-032, N-(4′-chloro-2-methoxybiphenyl-4-yl)methanesulfonamide] | 42%
30 | CS(=O)(=O)Nc1ccc(-c2ccc(Oc3ccccc3)cc2)cc1 [PT-033, N-(4′-phenoxybiphenyl-4-yl)methanesulfonamide] | 15.1%
31 | CS(=O)(=O)Nc1ccc(-c2ccccc2F)c(Cl)c1 [PT-035, N-(2-chloro-2′-fluorobiphenyl-4-yl)methanesulfonamide] | 48.2%
32 | CS(=O)(=O)Nc1ccc(-c2cccc(C(F)(F)F)c2)c(Cl)c1 [PT-036, N-[2-chloro-3′-(trifluoromethyl)biphenyl-4-yl]methanesulfonamide] | 64.1%
33 | CS(=O)(=O)Nc1ccc(-c2ccc(F)cc2)c(Cl)c1 [PT-037, N-(2-chloro-4′-fluorobiphenyl-4-yl)methanesulfonamide] | 40.4%
34 | CS(=O)(=O)Nc1ccc(-c2ccc(F)c(Cl)c2)c(Cl)c1 [PT-038, N-(2,3′-dichloro-4′-fluorobiphenyl-4-yl)methanesulfonamide] | 71%
35 | Cc1cc(NS(C)(=O)=O)ccc1-c1ccc(F)c(Cl)c1 [PT-039, N-(3′-chloro-4′-fluoro-2-methylbiphenyl-4-yl)methanesulfonamide] | 62.9%
36 | Cc1cc(-c2ccc(Oc3ccccc3)cc2)c(Cl)cc1NS(C)(=O)=O [PT-041, N-(2-chloro-5-methyl-4′-phenoxybiphenyl-4-yl)methanesulfonamide] | 59.3%
37 | Cc1cc(-c2ccc(Oc3ccccc3)cc2)ccc1NS(C)(=O)=O [PT-042, N-(3-methyl-4′-phenoxybiphenyl-4-yl)methanesulfonamide] | 25.5%
38 | CS(=O)(=O)Nc1ccc(-c2ccc(Cl)cc2)c(Cl)c1 [PT-043, N-(2,4′-dichlorobiphenyl-4-yl)methanesulfonamide] | 71.5%
39 | COC(=O)c1ccc(-c2ccc(NS(C)(=O)=O)cc2Cl)cc1 [PT-044, methyl 2′-chloro-4′-[(methylsulfonyl)amino]biphenyl-4-carboxylate] | 50.6%
40 | CS(=O)(=O)Nc1ccc(-c2ccc(F)cc2Cl)c(Cl)c1 [PT-045, N-(2,2′-dichloro-4′-fluorobiphenyl-4-yl)methanesulfonamide] | 57.5%
